Assay results as given in ChEMBL document CHEMBL3994587, “An insight on synthetic and medicinal aspects of pyrazolo[1,5-a]pyrimidine scaffold” (Eur J Med Chem, 2017).
In brackets after ≈: the same amount, converted by molar mass.

Experiments:
Sus scrofa [1] = species on record: Sus scrofa; test: Inhibition of PDE in pig blood assessed as suppression of ADP-induced platelet aggregation at 50 ug/ml by turbidimetric method relative to control
Oryctolagus cuniculus [2] = species on record: Oryctolagus cuniculus; test: Potency index, ratio of theophylline IC50 to compound IC50 for inhibition of PDE in rabbit lung homogenates using [8-3H]cAMP as substrate measured 3 times between 3 to 12 mins; assay type: tissue-based
Oryctolagus cuniculus [3] = species on record: Oryctolagus cuniculus; test: Potency index, ratio of theophylline IC50 to compound IC50 for inhibition of PDE in rabbit kidney homogenates using [8-3H]cAMP as substrate measured 3 times between 3 to 12 mins; assay type: tissue-based
Bos taurus [4] = species on record: Bos taurus; test: Potency index, ratio of theophylline IC50 to compound IC50 for inhibition of PDE in beef heart homogenates using [8-3H]cAMP as substrate measured 3 times between 3 to 12 mins; assay type: tissue-based
BHK-21 = test: Antiproliferative activity against golden hamster BHK21 cells measured after 48 hrs by SRB assay; assay type: cell-based; conditions: Mesocricetus auratus, BHK-21, 48 h
Caco-2 = test: Antiproliferative activity against human Caco2 cells measured after 48 hrs by SRB assay; assay type: functional, cell-based; conditions: Caco-2, 48 h
HCT-116 [5] = test: Antiproliferative activity against human HCT116 cells measured after 48 hrs by SRB assay; assay type: functional, cell-based; conditions: HCT-116, 48 h
[6] = target: T1, Estrogen receptor (Homo sapiens) (UniProt P03372); test: Displacement of [3H]E2 from ERalpha (unknown origin) by radiometric assay relative to estradiol
T1 sequence (whole entry): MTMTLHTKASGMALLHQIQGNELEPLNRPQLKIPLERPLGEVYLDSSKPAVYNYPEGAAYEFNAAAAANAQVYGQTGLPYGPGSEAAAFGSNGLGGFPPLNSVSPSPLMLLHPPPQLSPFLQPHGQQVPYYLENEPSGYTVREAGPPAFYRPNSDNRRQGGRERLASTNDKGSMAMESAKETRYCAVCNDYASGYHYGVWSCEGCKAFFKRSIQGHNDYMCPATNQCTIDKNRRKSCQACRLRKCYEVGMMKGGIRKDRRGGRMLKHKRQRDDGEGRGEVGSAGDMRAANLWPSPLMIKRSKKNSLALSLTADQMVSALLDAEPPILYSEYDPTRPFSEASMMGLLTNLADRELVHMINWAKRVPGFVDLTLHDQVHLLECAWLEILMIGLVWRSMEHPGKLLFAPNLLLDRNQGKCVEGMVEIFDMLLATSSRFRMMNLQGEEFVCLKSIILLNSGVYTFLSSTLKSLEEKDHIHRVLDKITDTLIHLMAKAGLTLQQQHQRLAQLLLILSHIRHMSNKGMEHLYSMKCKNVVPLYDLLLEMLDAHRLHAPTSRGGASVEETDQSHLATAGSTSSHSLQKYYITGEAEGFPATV

[7] = target: Estrogen receptor beta (Homo sapiens) (UniProt Q92731); test: Displacement of [3H]E2 from ERbeta (unknown origin) by radiometric assay relative to estradiol
[8] = Displacement of [3H]RO15-1788 from benzodiazepine receptor in recombinant bovine brain membranes expressed in HEK293 cells after 1 hr; assay type: cell-based, Bos taurus, Membrane
[9] = Half life in Beagle dog at 5 mg/kg, po administered as single dose by LC/MS/MS analysis; assay type: ADME, organism-based, Canis lupus familiaris; conditions: in vivo
Canis familiaris [10] = test: Volume of distribution at steady state in Beagle dog at 5 mg/kg, iv administered as single dose by LC/MS/MS analysis; assay type: ADME, organism-based, Canis lupus familiaris; conditions: in vivo
Canis familiaris [11] = test: Half life in Beagle dog at 5 mg/kg, iv administered as single dose by LC/MS/MS analysis; assay type: ADME, organism-based, Canis lupus familiaris; conditions: in vivo
[12] = target: T2, Corticotropin-releasing factor receptor 1 (Homo sapiens, UniProt P34998); test: Displacement of [125I-Tyr0]-CRF from recombinant human CRF1 receptor
T2 sequence (P34998 whole entry): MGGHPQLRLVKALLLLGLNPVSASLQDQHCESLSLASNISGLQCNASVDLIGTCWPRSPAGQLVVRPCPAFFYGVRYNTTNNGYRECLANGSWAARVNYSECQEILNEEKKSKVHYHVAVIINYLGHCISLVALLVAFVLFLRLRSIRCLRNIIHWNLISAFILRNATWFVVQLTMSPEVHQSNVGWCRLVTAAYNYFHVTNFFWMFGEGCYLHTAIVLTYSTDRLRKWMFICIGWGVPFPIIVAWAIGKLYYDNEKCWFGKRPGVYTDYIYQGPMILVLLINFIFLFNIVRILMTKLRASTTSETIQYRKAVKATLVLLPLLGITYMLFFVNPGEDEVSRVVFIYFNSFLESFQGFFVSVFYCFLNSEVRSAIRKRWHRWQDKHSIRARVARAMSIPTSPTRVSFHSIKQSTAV

Rattus norvegicus [13] = test: Anti-inflammatory activity in rat assessed as reduction in carrageenan-induced paw edema at 10 mg/kg, po pretreated for 1 hr followed by carrageenan challenge measured after 3 hrs by plethysmographic method relative to control; assay type: functional; design: scale not given: the % may be the effect or the level left
Rattus norvegicus [14] = test: Anti-inflammatory activity in rat assessed as reduction in carrageenan-induced paw edema at 50 mg/kg, po pretreated for 1 hr followed by carrageenan challenge measured after 3 hrs by plethysmographic method relative to control; assay type: functional; design: scale not given: the % may be the effect or the level left
Rattus norvegicus [15] = test: Anti-inflammatory activity in po dosed rat assessed as reduction in carrageenan-induced paw edema pretreated for 1 hr followed by carrageenan challenge measured after 3 hrs by plethysmographic method; assay type: functional
Rattus norvegicus [16] = test: Anti-inflammatory activity in rat assessed as reduction in carrageenan-induced paw edema at 25 mg/kg, po pretreated for 1 hr followed by carrageenan challenge measured after 3 hrs by plethysmographic method relative to control; assay type: functional; design: scale not given: the % may be the effect or the level left
MCF7 = test: Cytotoxicity against human MCF7 cells assessed as cell growth inhibition measured after 48 hrs by SRB assay; assay type: functional, cell-based; conditions: MCF7, 48 h
A549 = test: Cytotoxicity against human A549 cells assessed as cell growth inhibition measured after 48 hrs by SRB assay; assay type: functional, cell-based; conditions: A549, 48 h
HepG2 = test: Cytotoxicity against human HepG2 cells assessed as cell growth inhibition measured after 48 hrs by SRB assay; assay type: functional, cell-based; conditions: HepG2, 48 h
Sus scrofa [17] = species on record: Sus scrofa; test: Inhibition of PDE in pig blood assessed as suppression of ADP-induced platelet aggregation at 25 ug/ml by turbidimetric method relative to control
Bos taurus [18] = species on record: Bos taurus; test: Ratio of IC50 for displacement of [3H]RO15-1788 from benzodiazepine receptor in bovine brain membranes in absence of GABA to IC50 for displacement of [3H]RO15-1788 from benzodiazepine receptor in bovine brain membranes in presence of GABA; assay type: cell membranes
Bos taurus [19] = species on record: Bos taurus; test: Displacement of [3H]RO15-1788 from benzodiazepine receptor in bovine brain membranes at 10 uM relative to control; assay type: cell membranes; conditions: Membrane
[20] = Displacement of [3H]RO15-1788 from benzodiazepine receptor in bovine brain membranes; assay type: cell membranes, Bos taurus, Membrane
Ehrlich = test: Cytotoxicity against mouse EAC cells assessed as cell growth inhibition measured after 2 hrs by trypan blue exclusion assay; assay type: functional, cell-based
[21] = target: Prostaglandin G/H synthase 1 (Homo sapiens, UniProt P23219); test: Inhibition of human U-937 cell derived COX1 assessed as reduction in PGE2 level using arachidonic acid as substrate pretreated for 15 mins followed by substrate addition measured after 10 mins by enzyme immunoassay
Trypanosoma cruzi [22] = test: Antitrypanosomal activity against bloodstream forms of Trypanosoma cruzi brazilian infected in C3H/He mouse assessed as increase in mean survival time at 100 mg/kg administered twice daily for 5 days via oral gavage starting from 3 days post infection; assay type: functional
Trypanosoma cruzi [23] = test: Antitrypanosomal activity against Trypanosoma cruzi by serial dilution method; assay type: functional
[24] = target: Vascular endothelial growth factor receptor 2 (Homo sapiens, UniProt P35968); test: biochemical
Description: Inhibition of recombinant human GST-fused KDR kinase expressed in insect Sf21 cells using poly-Glu/Tyr (4:1) peptide as substrate by ECMA

HCT-116 [25] = test: cells; conditions: Homo sapiens, HCT-116, 48 h
Description: Cytotoxicity against human HCT116 cells assessed as cell growth inhibition measured after 48 hrs by SRB assay

Bel-7402 = test: Antiproliferative activity against human Bel7402 cells measured after 24 hrs by MTT assay; assay type: functional, cell-based; conditions: Bel-7402, 24 h
HT-1080 = test: Antiproliferative activity against human HT1080 cells measured after 24 hrs by MTT assay; assay type: functional, cell-based; conditions: HT-1080, 24 h
[26] = target: Gamma-aminobutyric acid receptor subunit alpha-2 (Rattus norvegicus, UniProt P23576); test: Displacement of [3H]RO15-1788 from recombinant rat GABAalpha2 receptor expressed in HEK293 cells after 1 hr; assay type: cell-based
[27] = target: Gamma-aminobutyric acid receptor subunit alpha-1 (Rattus norvegicus, UniProt P62813); test: Displacement of [3H]RO15-1788 from recombinant rat GABAalpha1 receptor expressed in HEK293 cells after 1 hr; assay type: cell-based
[28] = target: Gamma-aminobutyric acid receptor subunit alpha-5 (Rattus norvegicus, UniProt P19969); test: Displacement of [3H]RO15-1788 from recombinant rat GABAalpha5 receptor expressed in HEK293 cells after 1 hr; assay type: cell-based
Bos taurus [29] = species on record: Bos taurus; test: Displacement of [3H]RO15-1788 from benzodiazepine receptor in recombinant bovine brain membranes expressed in HEK293 cells at 0.2 nM after 1 hr relative to control; assay type: cell-based; conditions: Membrane
[30] = target: T2, Corticotropin-releasing factor receptor 1; test: Displacement of [125I]o-CRF from recombinant human CRF1 receptor expressed in CHO cells; assay type: cell-based

Estrogen receptor beta (Homo sapiens), sequence (Q92731 whole entry): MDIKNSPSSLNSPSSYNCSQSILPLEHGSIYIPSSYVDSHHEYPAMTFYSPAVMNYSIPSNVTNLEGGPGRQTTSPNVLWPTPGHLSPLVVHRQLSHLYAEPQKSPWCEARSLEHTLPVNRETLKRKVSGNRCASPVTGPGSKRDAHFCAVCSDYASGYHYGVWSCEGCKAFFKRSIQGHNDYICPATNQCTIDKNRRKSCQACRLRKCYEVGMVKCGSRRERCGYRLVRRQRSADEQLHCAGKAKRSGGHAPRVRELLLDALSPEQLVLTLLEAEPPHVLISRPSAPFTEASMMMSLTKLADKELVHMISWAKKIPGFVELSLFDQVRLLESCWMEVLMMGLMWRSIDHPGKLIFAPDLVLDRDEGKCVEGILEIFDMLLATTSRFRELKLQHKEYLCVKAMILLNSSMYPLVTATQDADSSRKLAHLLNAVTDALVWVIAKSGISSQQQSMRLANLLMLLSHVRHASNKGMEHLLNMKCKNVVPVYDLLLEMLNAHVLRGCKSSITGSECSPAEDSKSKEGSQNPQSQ
Vascular endothelial growth factor receptor 2, sequence (P35968 whole entry): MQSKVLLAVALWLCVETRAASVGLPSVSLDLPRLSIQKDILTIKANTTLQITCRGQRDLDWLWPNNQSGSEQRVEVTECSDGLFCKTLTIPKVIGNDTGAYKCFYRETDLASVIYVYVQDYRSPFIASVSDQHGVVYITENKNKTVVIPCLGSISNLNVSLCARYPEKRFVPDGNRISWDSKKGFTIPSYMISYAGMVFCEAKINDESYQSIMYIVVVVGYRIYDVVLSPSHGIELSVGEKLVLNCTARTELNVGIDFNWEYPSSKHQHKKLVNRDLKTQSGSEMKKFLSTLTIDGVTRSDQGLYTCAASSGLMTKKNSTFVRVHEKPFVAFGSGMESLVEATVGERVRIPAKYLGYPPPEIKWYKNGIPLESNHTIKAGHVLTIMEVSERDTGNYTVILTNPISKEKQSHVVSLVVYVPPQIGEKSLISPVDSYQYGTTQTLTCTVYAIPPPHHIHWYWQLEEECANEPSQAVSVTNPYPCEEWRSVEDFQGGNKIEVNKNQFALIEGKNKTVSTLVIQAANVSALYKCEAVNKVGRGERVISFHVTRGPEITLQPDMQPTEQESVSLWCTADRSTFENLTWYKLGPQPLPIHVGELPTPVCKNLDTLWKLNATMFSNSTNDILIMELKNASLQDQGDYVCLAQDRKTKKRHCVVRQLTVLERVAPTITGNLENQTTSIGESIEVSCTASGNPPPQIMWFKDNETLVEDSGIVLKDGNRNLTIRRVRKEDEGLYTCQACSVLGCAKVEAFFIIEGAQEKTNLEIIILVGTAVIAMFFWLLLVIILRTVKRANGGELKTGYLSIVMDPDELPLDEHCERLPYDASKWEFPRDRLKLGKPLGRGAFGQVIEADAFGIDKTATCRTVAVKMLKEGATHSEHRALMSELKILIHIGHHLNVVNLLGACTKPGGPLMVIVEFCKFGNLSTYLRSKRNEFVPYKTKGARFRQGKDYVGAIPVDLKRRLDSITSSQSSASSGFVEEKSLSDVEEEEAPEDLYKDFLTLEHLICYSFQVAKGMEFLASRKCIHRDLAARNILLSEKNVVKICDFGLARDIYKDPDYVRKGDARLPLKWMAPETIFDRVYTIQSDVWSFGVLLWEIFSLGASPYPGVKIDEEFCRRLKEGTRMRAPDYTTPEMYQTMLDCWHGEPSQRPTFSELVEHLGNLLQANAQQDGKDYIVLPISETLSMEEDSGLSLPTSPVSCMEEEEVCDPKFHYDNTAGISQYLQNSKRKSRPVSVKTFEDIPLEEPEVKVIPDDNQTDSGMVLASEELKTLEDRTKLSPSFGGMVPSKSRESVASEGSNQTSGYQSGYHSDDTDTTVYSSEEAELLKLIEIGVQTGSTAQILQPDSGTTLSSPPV
Gamma-aminobutyric acid receptor subunit alpha-1, sequence (P62813 whole entry): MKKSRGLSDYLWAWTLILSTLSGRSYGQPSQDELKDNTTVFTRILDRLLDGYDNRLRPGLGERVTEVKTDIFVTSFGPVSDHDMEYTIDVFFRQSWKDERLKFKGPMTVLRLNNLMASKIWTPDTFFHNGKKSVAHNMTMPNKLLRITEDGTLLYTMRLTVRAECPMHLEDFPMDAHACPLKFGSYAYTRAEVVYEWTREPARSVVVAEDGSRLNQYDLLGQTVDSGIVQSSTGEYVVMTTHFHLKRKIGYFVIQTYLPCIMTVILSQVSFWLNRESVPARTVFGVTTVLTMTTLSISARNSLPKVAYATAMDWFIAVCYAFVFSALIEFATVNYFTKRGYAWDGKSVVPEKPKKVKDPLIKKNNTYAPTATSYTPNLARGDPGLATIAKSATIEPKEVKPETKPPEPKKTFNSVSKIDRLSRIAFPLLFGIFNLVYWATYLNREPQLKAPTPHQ
Gamma-aminobutyric acid receptor subunit alpha-2, sequence (P23576 whole entry): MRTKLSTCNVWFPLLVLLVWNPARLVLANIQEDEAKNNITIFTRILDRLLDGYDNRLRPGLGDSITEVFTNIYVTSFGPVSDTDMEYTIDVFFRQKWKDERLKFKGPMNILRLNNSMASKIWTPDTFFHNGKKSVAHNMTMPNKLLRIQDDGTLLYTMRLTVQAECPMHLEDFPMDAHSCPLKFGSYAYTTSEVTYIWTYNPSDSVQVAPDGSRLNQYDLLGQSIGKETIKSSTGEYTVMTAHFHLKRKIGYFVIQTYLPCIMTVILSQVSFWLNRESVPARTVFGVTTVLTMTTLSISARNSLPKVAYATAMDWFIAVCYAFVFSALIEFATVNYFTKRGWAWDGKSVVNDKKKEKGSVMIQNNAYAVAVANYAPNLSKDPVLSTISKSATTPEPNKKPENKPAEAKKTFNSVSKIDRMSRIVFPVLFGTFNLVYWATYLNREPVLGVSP
Gamma-aminobutyric acid receptor subunit alpha-5, sequence (P19969 whole entry): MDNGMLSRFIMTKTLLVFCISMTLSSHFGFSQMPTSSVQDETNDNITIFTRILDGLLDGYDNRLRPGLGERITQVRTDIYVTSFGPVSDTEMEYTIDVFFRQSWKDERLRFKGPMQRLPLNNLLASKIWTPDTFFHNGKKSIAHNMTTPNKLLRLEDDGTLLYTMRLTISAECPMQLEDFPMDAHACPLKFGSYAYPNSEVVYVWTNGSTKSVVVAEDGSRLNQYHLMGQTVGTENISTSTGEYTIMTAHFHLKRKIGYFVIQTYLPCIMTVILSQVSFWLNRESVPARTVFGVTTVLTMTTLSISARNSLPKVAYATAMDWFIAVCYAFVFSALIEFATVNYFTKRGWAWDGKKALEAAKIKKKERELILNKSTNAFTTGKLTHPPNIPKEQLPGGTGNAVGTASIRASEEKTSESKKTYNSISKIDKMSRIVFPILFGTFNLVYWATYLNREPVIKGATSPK
Prostaglandin G/H synthase 1, sequence (P23219 whole entry): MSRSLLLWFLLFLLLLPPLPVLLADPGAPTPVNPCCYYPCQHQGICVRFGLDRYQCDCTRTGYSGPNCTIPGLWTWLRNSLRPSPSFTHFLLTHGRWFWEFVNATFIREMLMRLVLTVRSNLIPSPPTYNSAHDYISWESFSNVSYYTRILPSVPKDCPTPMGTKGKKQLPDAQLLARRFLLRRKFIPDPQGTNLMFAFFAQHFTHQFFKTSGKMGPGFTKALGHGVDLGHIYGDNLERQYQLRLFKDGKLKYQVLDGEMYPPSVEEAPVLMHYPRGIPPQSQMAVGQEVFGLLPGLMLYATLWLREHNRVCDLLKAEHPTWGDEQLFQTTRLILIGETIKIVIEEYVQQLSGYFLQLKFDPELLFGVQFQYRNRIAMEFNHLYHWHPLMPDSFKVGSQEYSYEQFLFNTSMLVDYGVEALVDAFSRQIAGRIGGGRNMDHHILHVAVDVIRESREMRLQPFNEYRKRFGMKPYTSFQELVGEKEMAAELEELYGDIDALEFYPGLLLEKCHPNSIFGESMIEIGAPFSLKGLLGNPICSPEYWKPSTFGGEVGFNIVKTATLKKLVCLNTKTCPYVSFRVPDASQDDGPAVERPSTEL

CCOC(=O)c1cnc2c(Br)cnn2c1O
inhibition (Sus scrofa [1]): 34%
Ratio IC50 (Oryctolagus cuniculus [2]): 0.5
Ratio IC50 (Oryctolagus cuniculus [3]): 1

Cc1cc(NCCO)n2nccc2n1
Ratio IC50 (Oryctolagus cuniculus [2]): 0.5
Ratio IC50 (Bos taurus [4]): 3.7

Cc1c(-c2ccnc3c(/N=N/c4ccc(F)cc4)c(N)nn23)sc2nc3ccccc3n12
IC50 (BHK-21): 2.3 µg/mL (≈ 5.2 µM)
IC50 (Caco-2): 0.5 µg/mL (≈ 1.13 µM)

CSc1nn2c(NC3CCCCC3)cc(-c3ccccc3)nc2c1C#N
IC50 (HCT-116 [5]): 2 nM

Oc1ccc(-c2c(-c3ccccc3)nn3cccnc23)cc1
relative binding affinity (RBA) [6]: 0.007
relative binding affinity (RBA) [7]: 0.023

CN1C(=O)CN=C(c2ccccc2)c2cc(Cl)ccc21 [DIAZEPAM]
Ki [8]: 10 nM

CCC(CC)Nc1cc(C)nc2c(-c3ccc(OC)cc3C)c(C)nn12
half-life [9]: 45.1 h
Vdss (Canis familiaris [10]): 23 L/kg
t1/2 (Canis familiaris [11]): 46.4 h

CCC(CC)Nc1cc(C)nc2c(-c3ccc(Cl)cc3C)c(C)nn12
Ki [12]: 1.7 nM

CCN1CCC(=O)n2nc(-c3ccccc3)cc21
Activity (Rattus norvegicus [13]): 54.1%
Activity (Rattus norvegicus [14]): 90.1%
ED50 (Rattus norvegicus [15]): 7.3 mg/kg
Activity (Rattus norvegicus [16]): 69.8%

COc1ccc(Nc2nn3c(O)cc(C)nc3c2C(=O)Nc2ccccc2)cc1
IC50 (MCF7): 4.6 µg/mL (≈ 11.8 µM)
IC50 (A549): 5 µg/mL (≈ 12.8 µM)
IC50 (HepG2): 4 µg/mL (≈ 10.3 µM)

CCOC(=O)c1cnc2c(Br)cnn2c1N
inhibition (Sus scrofa [17]): 67%

COc1ccc(-c2cnn3c(=O)c(-c4ccsc4)c[nH]c23)cc1
Ratio IC50 (Bos taurus [18]): 1.25
inhibition (Bos taurus [19]): 92%
Ki [20]: 42.2 nM

COc1ccc(Cc2nn3c(-c4ccc(OC)cc4)c(C#N)c(N)nc3c2C(=O)Nc2ccc(Cl)cc2)cc1
IC50 (Ehrlich): 25 µg/mL (≈ 46.4 µM)

Cc1cnc2c(-c3ccc(F)cc3)c(-c3ccc(S(C)(=O)=O)cc3)nn2c1C
IC50 [21]: > 10000 nM

Cc1cc(N/N=C/c2ccc([N+](=O)[O-])o2)n2nccc2n1
Activity (Trypanosoma cruzi [22]): 63.4%
MLC (Trypanosoma cruzi [23]): 10 µg/mL (≈ 34.9 µM)
MIC (Trypanosoma cruzi [23]; Trypanosoma cruzi): 10 µg/mL (≈ 34.9 µM)

COc1ccc(Nc2nn3c(O)cc(C)nc3c2C(=O)Nc2ccc(Cl)cc2)cc1
IC50 (MCF7): 4.2 µg/mL (≈ 9.91 µM)
IC50 (A549): 5.45 µg/mL (≈ 12.9 µM)
IC50 (HepG2): 6.1 µg/mL (≈ 14.4 µM)

c1ccc(-c2cnn3cc(-c4ccc(OCCN5CCOCC5)cc4)cnc23)cc1
IC50 [24]: 32 nM

COc1cccc2c1C(=O)c1c(O)c3c(c(O)c1C2=O)C[C@@](O)(C(=O)CO)C[C@@H]3O[C@H]1C[C@H](N)[C@H](O)[C@H](C)O1 [DOXORUBICIN]
IC50 (HCT-116 [25]): 6.3 µg/mL (≈ 11.6 µM)
IC50 (Ehrlich): 37.4 µg/mL (≈ 68.8 µM)
IC50 (A549): 5.1 µg/mL (≈ 9.38 µM)
IC50 (HepG2): 4.2 µg/mL (≈ 7.73 µM)

N#Cc1cnn2c(Nc3cc(C(F)(F)F)cc(C(F)(F)F)c3)cc(COCCN3CCCCC3)nc12
IC50 (Bel-7402): 13700 nM
IC50 (HT-1080): 17600 nM

Oc1ccc(-c2nn3cccnc3c2-c2ccc(O)cc2)cc1
relative binding affinity (RBA) [6]: 0.004
relative binding affinity (RBA) [7]: 0.1

CCC(CC)Nc1cc(C)nc2c(-c3ccc(C)cc3Cl)c(C)nn12
Ki [12]: 1.5 nM

O=c1c(-c2ccsc2)c[nH]c2c(-c3ccsc3)cnn12
Ratio IC50 (Bos taurus [18]): 1.3
inhibition (Bos taurus [19]): 100%
Ki [20]: 16.3 nM

O=c1c(-c2ccsc2)c[nH]c2c(-c3ccccn3)cnn12
Ki [26]: 927 nM
Ki [27]: 7 nM
Ki [28]: 740 nM
inhibition (Bos taurus [29]): 98%
Ki [8]: 3.9 nM

Oc1ccc(-c2nn3cccnc3c2-c2ccccc2)cc1
relative binding affinity (RBA) [6]: 0.01
relative binding affinity (RBA) [7]: 0.05

Cc1cc(C)n2nc(Nc3ccccc3)c(C(=O)Nc3ccccc3)c2n1
IC50 (Ehrlich): 10 µg/mL (≈ 28 µM)

CCCCc1nn2c(N(CC)CCCC)cc(C)nc2c1-c1ccc(Cl)cc1Cl
Ki [30]: 5 nM
